Experimental data: article PMC6799938, “Determinants of drug entry into the developing brain” (F1000Research, 2019)
Read-outs that look alike come from different tables or passages of the source. Blank lines part the entries; values can stand above or below the compound they belong to.

Legend:
[1] = Entry of "passive" markers into brain and CSF
Protocol: (§1) Experimental procedure. In acute drug experiments, a single dose was injected that included traces of [ ^3H]-labelled drug (20µCi adults, 2µCi newborns). In chronic experiments, doses of unlabelled drug were given twice daily (09.00 and 17.00h) for four days before a final injection on the 5 ^th day identical to acute experiments. In passive marker experiments, all dosing was acute and contained only the [ ^3H]- or [ ^14C]-labelled compound (20µCi adults, 2µCi newborns).
(§2) In all experiments involving postnatal animals, injections were intraperitoneal (i.p.). In pregnant animals for fetal drug entry studies, the final injection of the radiolabelled marker was given intravenously (i.v.), as the peritoneal cavity required opening prior to the sampling period to gain access to the fetuses. For passive markers (L-glucose, sucrose and glycerol), fetal animals were individually injected i.p. while still within the uterine horn. All experiments took place between 09.00 and 15.00h. All pregnancy studies were completed with a single treatment group on one day. Postnatal groups were conducted with a single treatment group on one day or with the chronic group completed prior to the acute group.
(§3) Sample collection. Samples were collected 30 minutes after the final injection. This duration was chosen partly to limit any potential metabolism of the drugs and markers used but also to allow enough time for i.p. injected markers to reach the blood stream and, from there, to access the brain parenchyma across brain barriers, as well as to limit the CSF sink effect that could influence drug levels ( [Bito et al., 1966]). Thirty minutes is also within the half-life of these drugs ( [Adedoyin et al., 1987]; [Harrison & Gibaldi, 1976]; Lin & Levy, 1963). The other reason a 30-minute duration was chosen is that in the case of exposed fetal rat pups, it is difficult to maintain them in a reasonable physiological state for long periods due to deterioration of placental perfusion. Therefore, for comparative purposes, all studies were conducted at the same time.
For adult and newborn (P4) experiments, animals were terminally anaesthetized using inhaled isofluorane (IsoFlo 100% w/w, Abbott Laboratories). Blood samples were collected from the right cardiac ventricle, CSF from the cisterna magna (Habgood et al., 1992) and cortical segments of brain tissue dorsal to the ventricle of the frontal/parietal lobes, as previously described ( [Koehn et al., 2019]). Blood and CSF sampling from the P4 animals was terminal and would thus not have affected the physiological state of the animals during the experiment.
Sample preparation. Samples were processed immediately after collection. Blood was centrifuged at 7000rpm for five minutes and the plasma separated. CSF samples were examined microscopically for traces of red blood cells and discarded if contaminated (Habgood et al., 1992). In all experiments, the radioactivity in the injectate was also measured to confirm the uniformity of the injected material. All samples were weighed and transferred into scintillation vials. Soluene350 (0.5ml, PerkinElmer) was added to the brain samples. After being incubated at 36°C overnight to allow the tissue to solubilize, two drops of glacial acetic acid (Sigma) were added to neutralize the strongly alkaline Soluene350. All samples were then mixed with 5ml of scintillation fluid (Emulsifier-safe, PerkinElmer) before being transferred into the liquid scintillation counter (Tri-Carb 4910 TR, PerkinElmer) to count radioactivity disintegrations per minute (DPM) over five minutes each with luminescence correction on. Blank vials containing the same tissues without radioactivity were also counted alongside the samples to establish the level of background counts, which were always subtracted from the radioactivity counts of the corresponding experimental samples.
BrainorCSFtransfer=BrainorCSFDPM/μl/plasmaDPM/μl×100%

[2] = Sprague Dawley, rat, in vivo
[3] = for Brain radioactivity level / CSF radioactivity level / Plasma radioactivity level: mean
Protocol: Animals. Sprague Dawley rats were supplied by the University of Melbourne Biological Research Facility and housed in groups of 2–4 (adult) or full litters per cage (25cm x 35cm x 25cm on Breeders Choice paper bedding, made from 99% recycled paper; it is biodegradable with no added chemicals), on a 12 h light/dark cycle with ad libitum access to food (dry pellets of a fixed formulation diet for laboratory rats and mice fortified with vitamins and minerals to meet the requirements of breeding animals after the diet is autoclaved or irradiated, supplied by Speciality Feeds, Western Australia) and water. Age groups investigated (at treatment completion) were time mated pregnant females at E19 (350-400g body weight), postnatal pups at P4 and non-pregnant female adults (175-230g body weight). E19 was chosen because this is a stage of development when adequate volumes of blood and CSF can be obtained for analysis from fetal rats without pooling ( [Dziegielewska et al., 1981]) and individual pups can be injected intraperitoneally while still inside the uterine horn and kept viable for periods of time. P4 was chosen because its stage of brain development is similar to that of very prematurely born but viable human infants of 22–24 weeks gestation ( [Clancy et al., 2001]). Animal numbers were based on previous experience of such experiments and were the minimum number required to detect a significant difference between groups at P <0.05.
Drug doses. Drug doses were selected based on use in clinical practice ( [Australian Medicines Handbook, 2019]) and adjusted for body weight.
as §1, §2, §3
For adult and newborn (P4) experiments, animals were terminally anaesthetized using inhaled isofluorane (IsoFlo 100% w/w, Abbott Laboratories).

[4] = passive marker, E19, 60-minute, separate experimentation
[5] = passive marker, E19, 30 minutes after i.p. injection
[6] = passive marker, P4, 30 minutes after i.p. injection
[7] = passive marker, adults, 30 minutes after i.p. injection
[8] = E19 fetuses, acute, 30 min - […] after administration
[9] = E19 fetuses, chronic (twice daily over five days), 30 min - […] after final dose
[10] = P4, chronic i.p. (twice daily over five days), 30 min after final dose
[11] = adult, chronic i.p. (twice daily over five days), 30 min after final dose

CSF concentration ratio [1, 4]: ~100%
brain concentration ratio [1, 4]: approximately 80%
Brain/Plasma Ratio [1, 5]: 46.8%
CSF/Plasma Ratio [1, 5]: 46.8%
Brain/Plasma Ratio [1, 6]: 82.2%
CSF/Plasma Ratio [1, 6]: 95%
Brain/Plasma Ratio [1, 7]: 85.5%
CSF/Plasma Ratio [1, 7]: 103.9%
Fetal/Maternal plasma concentration ratio, range [2]: (68.1 - 134.7) %
Compound: OCC(O)CO [Glycerol]

restriction of transfer by the placenta [2]: about 60%
Compound: C[C@H]1O[C@@H](O[C@H]2[C@@H](O)C[C@H](O[C@H]3[C@@H](O)C[C@H](O[C@H]4CC[C@@]5(C)[C@H](CC[C@@H]6[C@@H]5C[C@@H](O)[C@]5(C)[C@@H](C7=CC(=O)OC7)CC[C@]65O)C4)O[C@@H]3C)O[C@@H]2C)C[C@H](O)[C@@H]1O [Digoxin]

CSF/Plasma Ratio ([1]; rat, in vivo): very low
Brain/Plasma Ratio ([1]; rat, in vivo, 0.5 h): very low
Compound: OC[C@H]1O[C@@](CO)(O[C@H]2O[C@H](CO)[C@@H](O)[C@H](O)[C@H]2O)[C@@H](O)[C@@H]1O [sucrose, Sucrose]

transfer from maternal blood to fetal brain ([3]; E19, acute): 28%
Brain radioactivity level [3, 8]: 39.6 DPM/µg
CSF radioactivity level [3, 8]: 35.3 DPM/µl
Plasma radioactivity level [3, 8]: 57.8 DPM/µl
Brain radioactivity level [3, 9]: 146.1 DPM/µg
CSF radioactivity level [3, 9]: 119.0 DPM/µl
Plasma radioactivity level [3, 9]: 140.5 DPM/µl
Brain radioactivity level ([3]; P4, acute i.p., 30 min): 117.5 DPM/µg
CSF radioactivity level ([3]; P4, acute i.p., 30 min): 96.5 DPM/µl
Plasma radioactivity level ([3]; P4, acute i.p., 30 min): 193.6 DPM/µl
Brain radioactivity level [3, 10]: 84.4 DPM/µg
CSF radioactivity level [3, 10]: 71.0 DPM/µl
Plasma radioactivity level [3, 10]: 166.8 DPM/µl
transfer into maternal brain (brain/maternal blood) ([3]; acute): 30%
Brain radioactivity level ([3]; adult, acute i.p., 30 min): 27.3 DPM/µg
CSF radioactivity level ([3]; adult, acute i.p., 30 min): 25.4 DPM/µl
Plasma radioactivity level ([3]; adult, acute i.p., 30 min): 90.1 DPM/µl
Brain radioactivity level [3, 11]: 17.6 DPM/µg
CSF radioactivity level [3, 11]: 14.9 DPM/µl
Plasma radioactivity level [3, 11]: 83.3 DPM/µl
transfer into maternal brain (brain/maternal blood) ([3]; chronic (five days of twice-daily dosing)): 21%
Compound: CC(=O)Nc1ccc(O)cc1 [Paracetamol]
